From ChEMBL document CHEMBL1201862, “PubChem BioAssay data set” (2004)
Structures can show the parent of a compound that is named as a salt. Each block holds one compound with its values, some of them ahead of it. The source made the active and inactive calls.

Legend:
[1] = Vero cell cytotoxicity, dose response, cytotoxicity control for Vif-APOBEC3G degradation inhibitor project, Vero cells (AID 1117358); assay type: functional; details: Human immunodeficiency virus 1, Vero
Protein skinhead-1 = biological target: T1, Protein skinhead-1 (Caenorhabditis elegans, UniProt P34707); assay type: functional
T1 sequence (P34707 whole entry): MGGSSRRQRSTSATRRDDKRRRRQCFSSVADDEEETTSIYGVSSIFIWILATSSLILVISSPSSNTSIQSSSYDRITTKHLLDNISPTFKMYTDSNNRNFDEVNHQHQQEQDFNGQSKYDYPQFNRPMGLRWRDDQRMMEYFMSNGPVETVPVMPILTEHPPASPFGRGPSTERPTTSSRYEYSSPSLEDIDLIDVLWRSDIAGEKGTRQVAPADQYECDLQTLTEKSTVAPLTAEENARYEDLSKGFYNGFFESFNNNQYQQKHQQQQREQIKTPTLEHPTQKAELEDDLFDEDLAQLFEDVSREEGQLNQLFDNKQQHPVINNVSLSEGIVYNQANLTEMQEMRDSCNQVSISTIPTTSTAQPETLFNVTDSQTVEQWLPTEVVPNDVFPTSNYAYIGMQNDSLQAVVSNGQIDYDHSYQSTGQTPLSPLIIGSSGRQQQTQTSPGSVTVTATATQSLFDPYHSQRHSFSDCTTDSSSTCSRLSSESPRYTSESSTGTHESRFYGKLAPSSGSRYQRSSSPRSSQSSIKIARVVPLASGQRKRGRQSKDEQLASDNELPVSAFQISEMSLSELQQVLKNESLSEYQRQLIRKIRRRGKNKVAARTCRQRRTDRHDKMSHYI

[2] = biological target: T2, Sentrin-specific protease 8 (Homo sapiens, UniProt Q96LD8); assay type: functional
T2 sequence (Q96LD8 whole entry): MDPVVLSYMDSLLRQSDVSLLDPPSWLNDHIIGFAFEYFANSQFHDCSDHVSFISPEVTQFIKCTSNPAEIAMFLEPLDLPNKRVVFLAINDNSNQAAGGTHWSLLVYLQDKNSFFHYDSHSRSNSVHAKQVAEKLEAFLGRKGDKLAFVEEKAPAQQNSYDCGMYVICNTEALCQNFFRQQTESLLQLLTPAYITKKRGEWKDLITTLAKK

[3] = biological target: T3, Tyrosyl-DNA phosphodiesterase 2 (Homo sapiens, UniProt O95551); experiment: human TDP2 enzyme inhibitors, dose response, biochemical, epi absorbance, IC50 (AID 743297)
T3 sequence (O95551 whole entry): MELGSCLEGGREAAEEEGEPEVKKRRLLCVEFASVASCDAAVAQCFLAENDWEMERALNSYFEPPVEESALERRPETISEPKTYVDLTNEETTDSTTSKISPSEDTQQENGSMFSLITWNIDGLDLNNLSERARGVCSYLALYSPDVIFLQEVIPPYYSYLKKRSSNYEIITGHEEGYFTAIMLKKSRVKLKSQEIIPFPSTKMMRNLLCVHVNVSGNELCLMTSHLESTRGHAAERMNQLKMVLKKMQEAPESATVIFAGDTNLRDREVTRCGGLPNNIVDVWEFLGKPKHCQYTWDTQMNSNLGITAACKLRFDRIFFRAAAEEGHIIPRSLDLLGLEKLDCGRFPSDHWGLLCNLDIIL

[4] = biological target: T2, Sentrin-specific protease 8; assay type: functional; remark: listed apart in the source
[5] = biological target: Glutathione-S-transferase (Schistosoma japonicum, UniProt Q26513); experiment: biotin-GST/anti-GST TR-FRET signal inhibitors, dose response, artefact control for Vif-APOBEC3G degradation inhibitor project, biochemical (AID 1117362); assay type: functional
[6] = biological target: T4, Histone-lysine N-methyltransferase NSD2 (Homo sapiens, UniProt O96028); assay type: biochemical
T4 sequence (O96028 whole entry): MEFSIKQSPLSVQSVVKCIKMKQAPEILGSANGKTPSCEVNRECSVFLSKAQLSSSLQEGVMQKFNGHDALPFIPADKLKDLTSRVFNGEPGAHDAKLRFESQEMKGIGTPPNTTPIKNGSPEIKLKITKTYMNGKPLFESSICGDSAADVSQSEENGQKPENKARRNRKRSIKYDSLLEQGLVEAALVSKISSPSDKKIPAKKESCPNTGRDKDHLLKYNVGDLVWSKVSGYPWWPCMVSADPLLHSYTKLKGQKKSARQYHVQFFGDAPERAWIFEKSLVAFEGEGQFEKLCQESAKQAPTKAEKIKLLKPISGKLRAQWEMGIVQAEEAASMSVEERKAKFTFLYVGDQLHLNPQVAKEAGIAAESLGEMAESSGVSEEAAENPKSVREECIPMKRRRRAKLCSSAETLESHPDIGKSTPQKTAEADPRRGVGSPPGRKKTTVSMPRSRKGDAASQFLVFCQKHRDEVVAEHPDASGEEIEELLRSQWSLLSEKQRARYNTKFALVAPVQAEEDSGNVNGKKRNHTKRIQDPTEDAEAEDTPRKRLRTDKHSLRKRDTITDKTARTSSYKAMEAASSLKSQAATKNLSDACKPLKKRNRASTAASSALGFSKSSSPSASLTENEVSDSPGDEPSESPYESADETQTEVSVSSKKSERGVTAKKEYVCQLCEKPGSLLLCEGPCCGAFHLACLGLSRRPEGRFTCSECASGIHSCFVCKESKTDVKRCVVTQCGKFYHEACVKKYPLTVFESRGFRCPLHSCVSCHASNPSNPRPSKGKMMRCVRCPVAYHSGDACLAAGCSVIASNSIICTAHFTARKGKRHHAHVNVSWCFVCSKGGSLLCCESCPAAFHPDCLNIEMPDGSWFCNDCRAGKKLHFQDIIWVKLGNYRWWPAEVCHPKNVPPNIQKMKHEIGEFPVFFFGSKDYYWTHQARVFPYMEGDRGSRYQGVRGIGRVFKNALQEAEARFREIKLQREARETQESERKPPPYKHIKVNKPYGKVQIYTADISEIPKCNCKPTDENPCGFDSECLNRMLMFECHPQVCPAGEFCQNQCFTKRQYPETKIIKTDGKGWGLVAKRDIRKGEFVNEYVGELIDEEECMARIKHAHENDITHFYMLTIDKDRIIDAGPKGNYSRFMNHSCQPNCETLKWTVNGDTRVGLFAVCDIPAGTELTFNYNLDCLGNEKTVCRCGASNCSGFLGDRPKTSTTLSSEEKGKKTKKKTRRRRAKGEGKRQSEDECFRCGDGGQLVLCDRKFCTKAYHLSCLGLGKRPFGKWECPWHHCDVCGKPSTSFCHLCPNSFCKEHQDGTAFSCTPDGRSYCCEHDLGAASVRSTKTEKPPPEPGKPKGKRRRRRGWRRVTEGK

[7] = biological target: Sphingosine 1-phosphate receptor 2 (Homo sapiens, UniProt O95136); experiment: Dose Response Cell Based Assay for Agonists of the S1P2 Receptor. [Related pubchem assays: 729, 736, 843 ]; assay type: functional
[8] = biological target: T5, Ubiquitin-conjugating enzyme E2 N (Homo sapiens, UniProt P61088); assay type: functional
T5 sequence (P61088 whole entry): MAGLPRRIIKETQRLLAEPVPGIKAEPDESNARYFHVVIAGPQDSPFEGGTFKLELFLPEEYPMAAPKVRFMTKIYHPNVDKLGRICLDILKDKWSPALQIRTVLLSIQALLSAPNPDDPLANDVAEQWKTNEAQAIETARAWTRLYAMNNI

[9] = biological target: T5, Ubiquitin-conjugating enzyme E2 N; assay type: functional; remark: listed apart in the source
Bcl-2-related protein A1 = biological target: T6, Bcl-2-related protein A1 (Mus musculus, UniProt Q07440); assay type: functional;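 also: confirmatory dose–response counterscreen on Bfl-1, used to check hits from a UBC13 polyubiquitin inhibitor campaign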
T6 sequence (Q07440 whole entry): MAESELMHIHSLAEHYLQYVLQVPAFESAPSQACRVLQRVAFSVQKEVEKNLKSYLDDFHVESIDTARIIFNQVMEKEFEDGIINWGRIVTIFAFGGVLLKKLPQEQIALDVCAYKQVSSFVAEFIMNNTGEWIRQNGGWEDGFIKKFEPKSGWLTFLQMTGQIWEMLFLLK

[10] = Dose-response inhibition of insulin secretion in a rat insulinoma line at 5 mM glucose (AID 1117331); assay type: functional, cell-based; details: INS-1E
[11] = cytotoxicity toward HT-29 cells – cell-based, CellTiter-Glo luminescence, IC50, dose response (AID 1117330); assay type: functional
[12] = SNU-C1 cell viability reduction, dose response, CellTiter-Glo luminescence (AID 1117323); assay type: functional, cell-based
[13] = RKO cell viability reduction, dose response, CellTiter-Glo luminescence (AID 1117322); assay type: functional
[14] = cytotoxicity toward HCT116 cells – cell-based, CellTiter-Glo luminescence, IC50, dose response (AID 1117332); assay type: functional; details: HCT-116
[15] = CellTiter-Glo luminescent dose response of DLD-1 viability loss (AID 1117352); assay type: functional
[16] = HCT116 cell viability decrease, GSK3B pretreatment – CellTiter-Glo, IC50, dose response (AID 1117339); assay type: functional; details: HCT-116
[17] = Concentration-dependent survival of SW480 colon cancer line, luminescence detection with CellTiter-Glo, half-maximal inhibitory concentration (AID 1117338); assay type: functional
[18] = HeLa 2N DNA content increase, dose response, cell-based, IC50 (AID 1117349); assay type: functional
[19] = HeLa 4N DNA content increase, dose response, cell-based, IC50 (AID 1117351); assay type: functional
[20] = cytotoxicity toward Colo320 cells – cell-based, CellTiter-Glo luminescence, IC50, dose response (AID 1117334); assay type: functional; details: COLO 320
[21] = cell lysis of Cryptococcus neoformans, alamar blue – dry powder, set 3, mechanism study for C. neoformans antifungal project, dose response (AID 743298); assay type: functional, organism-based
INS1 = experiment: beta cell apoptosis inhibitors, cytokine rescue, dose response, luminescence, retest (AID 449756); assay type: functional, cell-based; details: Rattus norvegicus;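 also: cell death triggered by IL-1 beta plus TNF-alpha plus IFN-gamma mixture; protective hits raise ATP signal compared with cytokine alone wells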
[22] = HEp-2 cell cytotoxicity, dose response, cytotoxicity control for RSV inhibitor project, HTS (AID 2410); assay type: functional; details: human respiratory syncytial virus
NADPH oxidase 1 = NADPH oxidase 1 (Homo sapiens, UniProt Q9Y5S8); experiment: Late-stage luminescence-based cell-based dose response assay to identify inhibitors of NADPH oxidase 1 (NOX1): Synthesized analogs.; assay type: functional
[23] = A549 cell cytotoxicity, dose response, CellTiter-Glo luminescence, dry powder, set 17 (AID 1117284); assay type: functional, cell-based

Chain of Sphingosine 1-phosphate receptor 2 (O95136 whole entry): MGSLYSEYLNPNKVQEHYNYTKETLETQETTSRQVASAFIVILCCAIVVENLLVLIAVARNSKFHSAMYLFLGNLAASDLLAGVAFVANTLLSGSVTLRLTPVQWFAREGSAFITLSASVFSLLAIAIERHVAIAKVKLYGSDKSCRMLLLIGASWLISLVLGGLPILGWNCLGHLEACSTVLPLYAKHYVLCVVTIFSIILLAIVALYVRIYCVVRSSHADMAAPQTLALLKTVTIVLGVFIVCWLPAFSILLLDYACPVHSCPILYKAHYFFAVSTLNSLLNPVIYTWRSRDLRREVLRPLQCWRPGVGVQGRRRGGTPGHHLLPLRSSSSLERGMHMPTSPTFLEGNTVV
Chain of NADPH oxidase 1 (Q9Y5S8 whole entry): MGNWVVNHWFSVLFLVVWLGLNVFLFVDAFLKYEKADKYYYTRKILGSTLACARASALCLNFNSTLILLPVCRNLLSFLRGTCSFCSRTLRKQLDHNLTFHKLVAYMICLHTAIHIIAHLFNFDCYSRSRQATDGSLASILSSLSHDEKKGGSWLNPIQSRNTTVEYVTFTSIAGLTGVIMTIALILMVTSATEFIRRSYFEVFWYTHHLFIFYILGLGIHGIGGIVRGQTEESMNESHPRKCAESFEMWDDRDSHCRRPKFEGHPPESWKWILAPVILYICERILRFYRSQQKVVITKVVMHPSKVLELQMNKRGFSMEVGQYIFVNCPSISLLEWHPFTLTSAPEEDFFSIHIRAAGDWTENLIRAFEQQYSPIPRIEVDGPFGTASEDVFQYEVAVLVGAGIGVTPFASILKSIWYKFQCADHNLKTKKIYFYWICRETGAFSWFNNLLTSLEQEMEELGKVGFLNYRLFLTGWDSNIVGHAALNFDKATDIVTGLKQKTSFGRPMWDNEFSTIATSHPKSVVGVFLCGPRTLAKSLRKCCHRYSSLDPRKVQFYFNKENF
Chain of Glutathione-S-transferase (Q26513 whole entry): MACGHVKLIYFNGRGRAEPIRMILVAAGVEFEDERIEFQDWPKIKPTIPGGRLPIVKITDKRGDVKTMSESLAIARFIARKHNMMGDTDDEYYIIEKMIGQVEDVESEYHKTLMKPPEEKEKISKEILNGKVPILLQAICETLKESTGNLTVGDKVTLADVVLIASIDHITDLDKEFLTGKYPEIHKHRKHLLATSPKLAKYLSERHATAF

IC50 (Protein skinhead-1): > 100 µM (inactive)
SMILES: CSc1ccc(C2Nc3ccccc3-c3cc(C)nn32)cc1 (configuration not stated)
CC50 [1]: > 40 µM (active)

SMILES: C[n+]1cccc2cccc([O-])c21
IC50 [2]: 1.82 µM (active)
IC50 [3]: 60 µM (inactive)
IC50 [4]: 1.01 µM (active)
IC50 [5]: 42.6 µM (active)
AC50 [6]: 15.1 µM (active)

EC50 [7]: > 50 µM (not active)
IC50 [8]: 10.5 µM (active)
IC50 [9]: > 20 µM (inactive)
IC50 (Bcl-2-related protein A1): > 20 µM (inactive)
SMILES: CCC(=O)c1cc2c(C)cc(=O)oc2c(C)c1O

SMILES: CN(C)CCN1C(=O)c2ccccc2N(C)c2ccccc21 [DIBENZEPIN HYDROCHLORIDE]
IC50 [10]: > 33.3 µM (inactive)

SMILES: NC(N)=NN=C(/C=C/c1ccc([N+](=O)[O-])o1)/C=C/c1ccc([N+](=O)[O-])o1
IC50 [11]: 0.003 µM (active)
IC50 [12]: 1.35 µM (active)
IC50 [13]: 0.0128 µM (active)
IC50 [14]: 0.136 µM (active)
IC50 [15]: > 20 µM (inactive)
IC50 [16]: 0.0237 µM (active)
IC50 [17]: 0.0076 µM (active)
IC50 [18]: > 10 µM (inactive)
IC50 [19]: > 10 µM (inactive)
IC50 [20]: 0.003 µM (active)

SMILES: Fc1ccc(OCCn2c(=S)[nH]c3ccccc32)cc1
AC50 [21]: 55.4 µM (active)

SMILES: Cc1ccc2c(c1)Sc1c(ccc3ccccc13)N2
AC50 (INS1): > 260 µM (inactive)
CC50 [22]: 47.8 µM (active)
IC50 (NADPH oxidase 1): 1.47 µM (active)

SMILES: COc1ccc(-c2ccc(CN(C)C[C@@H]3Oc4cc(C#C[C@@H](C)O)ccc4S(=O)(=O)N([C@@H](C)CO)C[C@@H]3C)cc2)cc1
AC50 [23]: 29.8 µM (active)
